Measured values published in patent US20170290774A1, “NEUROKININ-1 RECEPTOR ANTAGONIST COMPOSITION FOR TREATMENT OF DISEASES AND CONDITIONS OF THE RESPIRATORY TRACT” (PLUS VITECH, S.L., priority 2014, published 2017).

Assay: Tissue concentration of aprepitant by HPLC after oral or inhaled administration to rabbits
Assay type: in vivo, New Zealand albino rabbits
Settings: rabbit
Experimental: Herein, New Zealand albino rabbits (New Zealand White Rabbits) with an initial average weight of approximately 3 kg were used. The rabbits were fed ad libitum and were monitored daily to check that signs of toxicity had not appeared. […] This mixture was administered as an aerosol to the airways of a group of 3 of said rabbits (Group 5) in a dose of 0.05 mg/kg body weight per day, to another group of three rabbits (Group 6) in a dose of 0.1 mg/kg body weight per day, to another group of three rabbits (group 7) in a dose of 0.2 mg/kg body weight per day and to another group of three rabbits (Group 8) in a dose of 0.4 mg/kg body weight per day. […] After seven days of treatment all animals were euthanized and necropsied. […] Samples were taken at the peripheral level of the lung parenchyma, just below the pleural surface. Tissue samples were also taken from the nasal cavity, pharynx, larynx and bronchi. […] The average is the arithmetic average calculated for each row or column of each table. The SD is the standard deviation, calculated for each row or column of each table.

C[C@@H](OC1OCCN(Cc2nc(=O)[nH][nH]2)C1c1ccc(F)cc1)c1cc(C(F)(F)F)cc(C(F)(F)F)c1 (stereo in doubt) [Aprepitant, 5-([(2R,3S)-2-((R)-1-[3,5-bis(trifluoromethyl)phenyl]ethoxy)-3-(4-fluorophenyl)morpholino]methyl)-1H-1,2,4-triazol-3(2H)-one]
concentration at 7 days (New Zealand White (albino), lung, right inferior lobe, inhaled, 0.2 mg/kg/day, Lung concentration of aprepitant LIPD, Average ± SD of cases, Group 7, inhalation (aerosol, olive oil) 0.2 mg/kg per day, seven days): 6000 ng/g
concentration at 7 days (New Zealand White (albino), lung, right inferior lobe, po, 100 mg/kg/day, Lung concentration of aprepitant LIPD (right inferior lobe), Group 4, oral 100 mg/kg per day, seven days, individual cases): 4900 ng/g
concentration at 7 days (New Zealand White (albino), lung, right inferior lobe, po, 100 mg/kg/day, Lung concentration of aprepitant LIPD, Average ± SD of cases, Group 4, oral 100 mg/kg per day, seven days): 5600 ng/g
concentration at 7 days (New Zealand White (albino), lung, right middle lobe, inhaled, 0.05 mg/kg/day, Lung concentration of aprepitant LMPD (right middle lobe), Group 5, inhalation (aerosol, olive oil) 0.05 mg/kg per day, seven days, individual cases): 1500 ng/g
concentration at 7 days (New Zealand White (albino), lung, right middle lobe, inhaled, 0.05 mg/kg/day, Lung concentration of aprepitant LMPD, Average ± SD of cases, Group 5, inhalation (aerosol, olive oil) 0.05 mg/kg per day, seven days): 1500 ng/g
concentration at 7 days (New Zealand White (albino), lung, right middle lobe, inhaled, 0.1 mg/kg/day, Lung concentration of aprepitant LMPD (right middle lobe), Group 6, inhalation (aerosol, olive oil) 0.1 mg/kg per day, seven days, individual cases): 2900 ng/g
concentration at 7 days (New Zealand White (albino), lung, right middle lobe, inhaled, 0.1 mg/kg/day, Lung concentration of aprepitant LMPD, Average ± SD of cases, Group 6, inhalation (aerosol, olive oil) 0.1 mg/kg per day, seven days): 2900 ng/g
concentration at 7 days (New Zealand White (albino), lung, right middle lobe, inhaled, 0.2 mg/kg/day, Lung concentration of aprepitant LMPD (right middle lobe), Group 7, inhalation (aerosol, olive oil) 0.2 mg/kg per day, seven days, individual cases): 6000 ng/g
concentration at 7 days (New Zealand White (albino), lung, right middle lobe, inhaled, 0.2 mg/kg/day, Lung concentration of aprepitant LMPD, Average ± SD of cases, Group 7, inhalation (aerosol, olive oil) 0.2 mg/kg per day, seven days): 6030 ng/g
concentration at 7 days (New Zealand White (albino), lung, right middle lobe, po, 100 mg/kg/day, Lung concentration of aprepitant LMPD, Average ± SD of cases, Group 4, oral 100 mg/kg per day, seven days): 5400 ng/g
concentration at 7 days (New Zealand White (albino), lung, right superior lobe, inhaled, 0.05 mg/kg/day, Lung concentration of aprepitant LSPD (right superior lobe), Group 5, inhalation (aerosol, olive oil) 0.05 mg/kg per day, seven days, individual cases): 1400 ng/g
concentration at 7 days (New Zealand White (albino), lung, right superior lobe, inhaled, 0.05 mg/kg/day, Lung concentration of aprepitant LSPD, Average ± SD of cases, Group 5, inhalation (aerosol, olive oil) 0.05 mg/kg per day, seven days): 1400 ng/g
concentration at 7 days (New Zealand White (albino), lung, right superior lobe, inhaled, 0.1 mg/kg/day, Lung concentration of aprepitant LSPD (right superior lobe), Group 6, inhalation (aerosol, olive oil) 0.1 mg/kg per day, seven days, individual cases): 2900 ng/g
concentration at 7 days (New Zealand White (albino), lung, right superior lobe, inhaled, 0.1 mg/kg/day, Lung concentration of aprepitant LSPD, Average ± SD of cases, Group 6, inhalation (aerosol, olive oil) 0.1 mg/kg per day, seven days): 2800 ng/g
concentration at 7 days (New Zealand White (albino), lung, right superior lobe, inhaled, 0.2 mg/kg/day, Lung concentration of aprepitant LSPD (right superior lobe), Group 7, inhalation (aerosol, olive oil) 0.2 mg/kg per day, seven days, individual cases): 6100 ng/g
concentration at 7 days (New Zealand White (albino), lung, right superior lobe, inhaled, 0.2 mg/kg/day, Lung concentration of aprepitant LSPD, Average ± SD of cases, Group 7, inhalation (aerosol, olive oil) 0.2 mg/kg per day, seven days): 6000 ng/g
concentration at 7 days (New Zealand White (albino), lung, right superior lobe, po, 100 mg/kg/day, Lung concentration of aprepitant LSPD, Average ± SD of cases, Group 4, oral 100 mg/kg per day, seven days): 4700 ng/g
concentration at 7 days (New Zealand White, in vivo, 0.4 mg/kg/day, Lung concentration of aprepitant, Average ± SD of the five lobes per case): 9900 ng/g
concentration at 7 days (New Zealand White, in vivo, po, 10 mg/kg/day, Lung concentration of aprepitant, Average ± SD of the five lobes per case): 960 ng/g
concentration at 7 days (New Zealand White, in vivo, po, 40 mg/kg/day, Lung concentration of aprepitant, Average ± SD of the five lobes per case): 4200 ng/g
concentration at 7 days (New Zealand White, in vivo, po, 80 mg/kg/day, Lung concentration of aprepitant, Average ± SD of the five lobes per case): 4400 ng/g
concentration at 7 days (New Zealand White, lung, left inferior lobe, inhaled, 0.2 mg/kg/day, Lung concentration of aprepitant LIPI, Average ± SD of cases, Group 7, inhalation (aerosol, olive oil) 0.2 mg/kg per day, seven days): 5900 ng/g
concentration at 7 days (New Zealand White, lung, left inferior lobe, inhaled, 0.4 mg/kg/day, Lung concentration of aprepitant LIPI (left inferior lobe), Group 8, inhalation (aerosol, olive oil) 0.4 mg/kg per day, seven days, individual cases): 10000 ng/g
concentration at 7 days (New Zealand White, lung, left inferior lobe, inhaled, 0.4 mg/kg/day, Lung concentration of aprepitant LIPI, Average ± SD of cases, Group 8, inhalation (aerosol, olive oil) 0.4 mg/kg per day, seven days): 10000 ng/g
concentration at 7 days (New Zealand White, lung, left inferior lobe, po, 10 mg/kg/day, Lung concentration of aprepitant LIPI (left inferior lobe), Group 1, oral 10 mg/kg per day, seven days, individual cases): 1500 ng/g
concentration at 7 days (New Zealand White, lung, left inferior lobe, po, 10 mg/kg/day, Lung concentration of aprepitant LIPI, Average ± SD of cases, Group 1, oral 10 mg/kg per day, seven days): 1300 ng/g
concentration at 7 days (New Zealand White, lung, left inferior lobe, po, 40 mg/kg/day, Lung concentration of aprepitant LIPI (left inferior lobe), Group 2, oral 40 mg/kg per day, seven days, individual cases): 5400 ng/g
concentration at 7 days (New Zealand White, lung, left inferior lobe, po, 40 mg/kg/day, Lung concentration of aprepitant LIPI, Average ± SD of cases, Group 2, oral 40 mg/kg per day, seven days): 4000 ng/g
concentration at 7 days (New Zealand White, lung, left inferior lobe, po, 80 mg/kg/day, Lung concentration of aprepitant LIPI (left inferior lobe), Group 3, oral 80 mg/kg per day, seven days, individual cases): 3600 ng/g
concentration at 7 days (New Zealand White, lung, left inferior lobe, po, 80 mg/kg/day, Lung concentration of aprepitant LIPI, Average ± SD of cases, Group 3, oral 80 mg/kg per day, seven days): 3700 ng/g
concentration at 7 days (New Zealand White, lung, left superior lobe, inhaled, 0.2 mg/kg/day, Lung concentration of aprepitant LSPI, Average ± SD of cases, Group 7, inhalation (aerosol, olive oil) 0.2 mg/kg per day, seven days): 6030 ng/g
concentration at 7 days (New Zealand White, lung, left superior lobe, inhaled, 0.4 mg/kg/day, Lung concentration of aprepitant LSPI (left superior lobe), Group 8, inhalation (aerosol, olive oil) 0.4 mg/kg per day, seven days, individual cases): 9900 ng/g
